Reference: patent EP0007205A1, “Optically active phenethanolamines, their formulations, use and preparation” (ELI LILLY AND COMPANY, priority 1978, dated 1980)
Where two headings read alike, the source gives them in different places.

Tests used:
[1] = system: dogs; test: Inotropic potency in anesthetized dogs and conscious dogs with implanted cardiovascular transducers; format: in vivo; details: for ED50: read-out: Cardiac Contractile Potency mcg/kg ED50; for Blood Pressure Change mm/hg at ED50 / Heart rate Change beats/min. at ED50: at the contractile ED50
Method: The heart rate, arterial pressure, cardiac output, and the derivative of left ventricular pressure (which is the index of cardiac contractility), were measured.

[2] = system: dogs; test: Physical conditioning of dogs (treadmill exercise, chronic oral dosing); format: in vivo
Text: In a typical experiment, a group of ten dogs were implanted with miniature pressure transducers in their left ventricle so that measurements of heart rate, systolic pressure and the derivative of left ventricular pressure (the index of cardiac contractility) could be made. The dogs were trained to walk on a treadmill. Five of the dogs were randomly selected to receive a compound of this invention, for instance R,R-N-[2-(4-hydroxyphenyl)-2-hydroxyethyl]-1-methyl-3-(4-hydroxyphenyl)propylaminium chloride. The test animals received saline filled capsules during the first week of the test. During the second and third weeks, the dogs received the test compound orally at a dose of 10 mcg./kg. twice each day. The dosage was increased to 40 mcg./kg. twice each day for the fourth week, and increased to 60 mcg./kg. twice each day through weeks five to eleven. The other five dogs received saline filled capsules throughout the study. Once each week, the animals' response to exercise on . the treadmill was evaluated. Resting data were obtained by permitting the dogs to lie on the treadmill before turning it on. The treadmill then was run at a speed of 3.5 kilometers/hr., with the dogs walking at this speed with no elevation for 5 min., and then for 5 min. at a 20% incline. During the eleventh week of such test, the dogs were made to walk on a 40% incline, thus providing sufficient stress to increase plasma lactic acid and catecholamines. Blood samples prior to each exercise and within two minutes of completing the exercise were taken from the jugular vein.
After several weeks, the dogs were anesthetized and measurements of ventricular function and skeletal muscle blood flow and enzymes were made.

[3] = Canis lupus familiaris, dogs, dose giving a 50% increase in contractile force (derivative of left ventricular pressure)

C[C@H](CCc1ccc(C(N)=O)cc1)NC[C@H](O)c1ccccc1 [R,R-N-(2-Phenyl-2-hydroxyethyl)-l-methyl-3-(4-aminocarbonylphenyl)propylamine]
ED50 [1, 3]: 7 µg/kg | Blood Pressure Change mm/hg at ED50 ([1]; dogs): +3 mm/hg | Heart rate Change beats/min. at ED50 ([1]; dogs): 15 beats/min.

C[C@H](CCc1ccc(O)cc1)NC[C@H](O)c1ccccc1 [R,R-N-(2-phenyl-2-hydroxyethyl)-1-methyl-3-(4-hydroxyphenyl)propylamine]
ED50 [1, 3]: 6 µg/kg | Blood Pressure Change mm/hg at ED50 ([1]; dogs): -13 mm/hg | Heart rate Change beats/min. at ED50 ([1]; dogs): 15 beats/min.

C[C@H](CCc1ccc(O)cc1)NC[C@H](O)c1ccc(O)cc1.Cl [R,R-N-[2-(4-Hydroxyphenyl)-2-hydroxyethyl]-1-methyl-3-(4-hydroxyphenyl)propylaminium chloride]
Skeletal Muscle Blood Flow (ml./min./100 g.) ([2]; conditioned dogs, anesthetized after several weeks, p<0.01): 2.5 ml./min./100 g. | Heart Rate (beats/min.) at rest ([2]; conditioned dogs, at rest, p<0.01): 55 beats/min. | Heart Rate (beats/min.) at 20° walk ([2]; conditioned dogs, treadmill walk at 20°, p<0.01): 150 beats/min. | Blood Lactic Acid (mg.%) at rest ([2]; dogs, oral 10 then 40 then 60 mcg./kg. twice each day over eleven weeks, at rest, p<0.01 printed for lactic acid): 5.2 mg.% | Plasma Norepinephrine (picograms/ml.) at rest ([2]; dogs, oral 10 then 40 then 60 mcg./kg. twice each day over eleven weeks, at rest, p<0.05 printed for norepinephrine): 235 picograms/ml. | Blood Lactic Acid (mg.%) during exercise ([2]; dogs, oral 10 then 40 then 60 mcg./kg. twice each day over eleven weeks, during treadmill exercise, p<0.01 printed for lactic acid): 6.3 mg.% | Plasma Norepinephrine (picograms/ml.) during exercise ([2]; dogs, oral 10 then 40 then 60 mcg./kg. twice each day over eleven weeks, during treadmill exercise, p<0.05 printed for norepinephrine): 200 picograms/ml. | Succinic Dehydrogenase Activity (µM/mgP/min.) ([2]; skeletal muscle of conditioned dogs, p<0.01): 3.3 µM/mgP/min.

C[C@H](CCc1ccc(O)cc1)NC[C@H](O)c1ccc(O)cc1 [R,R-N-[2-(4-hydroxyphenyl)-2-hydroxyethyl]-1-methyl-3-(4-hydroxyphenyl)propylamine]
ED50 ([1]; Canis lupus familiaris): 0.32 µg/kg | Blood Pressure Change mm/hg at ED50 ([1]; dogs): -5 mm/hg | Heart rate Change beats/min. at ED50 ([1]; dogs): 15 beats/min.

C[C@@H](CCc1ccc(C(N)=O)cc1)NC[C@H](O)c1ccccc1 [R,S-N-(2-phenyl-2-hydroxyethyl)-1-methyl-3-(4-aminocarbonylphenyl)propylamine, reference compound]
ED (max) ([1]; Canis lupus familiaris, dogs, EDmax: a 50% increase in contractile force could not be achieved, dose giving the maximal increase, read-out: Cardiac Contractile Potency mcg/kg (EDmax)): 1980 µg/kg | Blood Pressure Change mm/hg (EDmax) ([1]; dogs, at EDmax dose): -30 (EDmax) mm/hg | Heart rate Change beats/min. (EDmax) ([1]; dogs, at EDmax dose): 24 (EDmax) beats/min.

C[C@@H](CCc1ccc(O)cc1)NC[C@H](O)c1ccc(O)cc1 [R,S-N-[2-(4-hydroxyphenyl)-2-hydroxyethyl]-1-methyl-3-(4-hydroxyphenyl)propylamine, reference compound]
ED50 ([1]; Canis lupus familiaris): 11 µg/kg | Blood Pressure Change mm/hg at ED50 ([1]; dogs): -2 mm/hg | Heart rate Change beats/min. at ED50 ([1]; dogs): 15 beats/min.

C[C@@H](CCc1ccc(O)cc1)NC[C@H](O)c1ccccc1 [R,S-N-[2-phenyl-2-hydroxyethyl)-1-methyl-3-(4-hydroxyphenyl)propylamine, reference compound]
ED50 [1, 3]: 350 µg/kg | Blood Pressure Change mm/hg at ED50 ([1]; dogs): -20 mm/hg | Heart rate Change beats/min. at ED50 ([1]; dogs): 18 beats/min.
